# Measurements taken from patent US20210353579A1, “HIGH PENETRATION COMPOSITIONS AND USES THEREOF” (Techfields Pharma Co., Ltd., priority 2006, published 2021).
# Structures can show the parent of a compound that is named as a salt.
# What was measured:
# Hypertension patients = assay: Anti-hypertension effect of transdermal atenolol in patients; format: in vivo, human; conditions: 100 mg in 1 ml of pure water per day transdermally
# Experimental: 20 Hypertension patents were divided to 2 groups. Group A is control group (n=10, 1 ml of water was administrated to the chest of patients once per day) and group B is atenolol treated group (n=10, 100 mg of atenolol HCl salt was administrated to the chest of patients once per day) (Table 32).
# [1] = Plasma levels after transdermal administration to hairless mice; format: in vivo; conditions: mouse, in vivo
# Experimental: Tested compounds (20% solution or suspension in 1 mL isopropanol) are administered transdermally to the skin of intact hairless mice. The plasma levels of the parent compounds are determined by HPLC.
# mice [2] = assay: Analgesic activity, D'Amour-Smith method (tail heat, pain threshold); format: in vivo; conditions: 200 mg/kg transdermally vs 200 mg/kg diflunisal orally
# Experimental: After the tested compounds are administered (the dosages for each test compounds are specified in FIG. 3, prodrug compounds are administered orally and transdermally respectively in different groups, while parent compounds are administered orally) to a group of mice (six mice every group), the tails of mice are exposed to heat and the prolongation time of pain threshold is determined. […] The prodrug compounds show similar analgesic activities when the same dosages are administered orally or transdermally. (FIG. 3)
# mice [3] = assay: Analgesic activity, acetic acid writhing; format: in vivo; conditions: 30 min before acetic acid
# Experimental: The prodrug compounds are administered either transdermally or orally. The parent compounds are administered orally. The number of writhing that occurred when mice are administered the acetic acid solution are counted, and the rate of inhibition based on the control group which was not pretreated with any test compounds is calculated. […] The A group is the control group.
# rats = assay: Antipyretic activity, E. coli suspension as pyrogen; format: in vivo; conditions: in °C (unit assumed)
# Experimental: Rats are administered with sterilized E. coli suspension as a pyrogen. Each group of rats are administered with a prodrug compounds or parent compounds at a dosage specified below. The prodrug compounds are administered either orally or transdermally. The parent compounds are administered orally.
# human skin tissue = conditions: pH 7.4
# rat = conditions: rats
# Experimental: The acute toxicity of the prodrug compounds and parent compounds are measured by LD50 of rat.
# [4] = test system: rats (SLAC/GK, type 2 diabetes); assay: Blood glucose in type 2 diabetes rats, transdermal; format: in vivo, rat; conditions: diabetic rats (SLAC/GK); for Blood glucose, Average: average second to fifth week, no fasting, equal to 20 mg/kg of NSAIAs once per day for 5 weeks; for Blood glucose, Baseline: equal to 20 mg/kg of NSAIAs once per day
# Description: (§1) HPPs lower blood glucose level in rat models (SLAC/GK, type 2 diabetes, n=7). 50% acetone solution of diethylaminoethyl acetylsalicylate.acetylsalicylic acid salt (P-1, in acetone); 4-acetamidophenyl salicylyldimethylaminobutyrate.HCl (P-6), diethylaminoethyl 5-(2,4-difluorophenyl) acetylsalicylate.5-(2,4-difluorophenyl).acetylsalicylic acid salt (P-8), diethylaminoethyl salicylsalicylate.AcOH (P-9), diethylaminoethyl salicylate.AcOH (P-10), diethylaminoethyl 5-acetamido-acetylsalicylate (P-58), diethylaminoethyl acetylsalicylsalicylate.acetylsalicylsalicylic acid salt (P-59), diethylaminoethyl acetylsalicylsalicylate.acetylsalicylsalicylsalicylic acid salt (P-60) (equal to of 20 mg/kg of NSAIAs) are administered transdermally to the backs (about 1.5 cm^2) of rats (fur was shaved) once per day (at 8 am) for 5 weeks. The blood glucose levels are measured once every 3 days at 3 pm (no fasting) from the second week to the fifth week (Table 24). The blood lipid levels are measured at the end of the fifth week (Table 25).
# [5] = test system: rats (SLAC/GK, type 2 diabetes); assay: Blood lipid in type 2 diabetes rats, transdermal; format: in vivo, rat; conditions: for Cholesterol (HDL), Baseline / Cholesterol (total), Baseline / Triglycerides, Baseline: equal to 20 mg/kg of NSAIAs; for Cholesterol (HDL), Average / Cholesterol (total), Average / Triglycerides, Average: end of the fifth week, equal to 20 mg/kg of NSAIAs once per day
# Description: as §1
# [6] = test system: rats (SLAC/GK, type 2 diabetes); assay: Blood glucose in type 2 diabetes rats, oral with food; format: in vivo, rat; conditions: for Blood glucose, Diabetic rats, Average: average second to fifth week, no fasting, equal to 20 mg/kg of NSAIAs every day for 5 weeks; for Blood glucose, Diabetic rats, Baseline: equal to 20 mg/kg of NSAIAs
# Description: (§2) 20% acetone solution of diethylaminoethyl acetylsalicylate.acetylsalicylic acid salt (P-1, in acetone); 4-acetamidophenyl salicylyldimethylaminobutyrate.HCl (P-6), diethylaminoethyl 5-(2,4-difluorophenyl) acetylsalicylate.5-(2,4-difluorophenyl) acetylsalicylic acid salt (P-8), diethylaminoethyl salicylsalicylate.AcOH (P-9), diethylaminoethyl salicylate.AcOH (P-10), diethylaminoethyl 5-acetamido-acetylsalicylate (P-58), diethylaminoethyl acetylsalicylsalicylate. acetylsalicylsalicylic acid salt (P-59), diethylaminoethyl acetylsalicylsalicylate. acetylsalicylsalicylsalicylic acid salt (P-60) (equal to of 20 mg/kg of NSAIAs) were mixed with food and were orally administered to the rats (SLAC/GK, type 2 diabetes, n=7) with food every day for 5 weeks. The blood glucose levels were measured once every 3 days at 3 pm (no fasting) from the second week to the fifth week. The blood lipid levels were measured at the end of the fifth week.
# [7] = test system: rats (SLAC/GK, type 2 diabetes); assay: Blood lipid in type 2 diabetes rats, oral with food; format: in vivo, rat; conditions: for Cholesterol (HDL), Baseline / Cholesterol (total), Baseline / Triglycerides, Baseline: equal to 20 mg/kg of NSAIAs; for Cholesterol (HDL), Average / Cholesterol (total), Average / Triglycerides, Average: end of the fifth week, equal to 20 mg/kg of NSAIAs every day
# Description: as §2
# [8] = test system: mice (SLAC:NOD-IDDM, type 1 diabetes); assay: Blood glucose in type 1 diabetes mice, transdermal; format: in vivo, mouse; conditions: for Blood glucose, Average: average fourth to seventh week, no fasting, equal to 30 mg/kg of NSAIAs once per day for 7 weeks; for Blood glucose, Baseline: equal to 30 mg/kg of NSAIAs
# Description: The pro-drugs in this invention lower blood glucose levels in mouse models (SLAC:NOD-IDDM, type 1 diabetes, n=7). 50% acetone solution of diethylaminoethyl acetylsalicylate.acetylsalicylic acid salt (P-1, in acetone); 4-acetamidophenyl salicylyldimethylaminobutyrate.HCl (P-6), diethylaminoethyl 5-(2,4-difluorophenyl) acetylsalicylate.5-(2,4-difluorophenyl) acetylsalicylic acid salt (P-8), diethylaminoethyl salicylsalicylate.AcOH (P-9), diethylaminoethyl salicylate.AcOH (P-10), diethylaminoethyl 5-acetamido-acetylsalicylate (P-58), diethylaminoethyl acetylsalicylsalicylate. acetylsalicylsalicylic acid salt (P-59), diethylaminoethyl acetylsalicylsalicylate. acetylsalicylsalicylsalicylic acid salt (P-60) (equal to of 30 mg/kg of NSAIAs) were administered transdermally to the backs (about 1.5 cm^2) of mice (fur was shaved) once per day (at 8 am) for 7 weeks. The blood glucose levels were measured once every 3 days at 3 pm (no fasting) from the fourth week to the seventh week.
# normal rats [9] = assay: Blood glucose in normal rats, transdermal; format: in vivo, rat; conditions: for Blood glucose, Average: normal rats (second Average line of Table 24), average second to fifth week, equal to 20 mg/kg of NSAIAs once per day; for Blood glucose, Baseline: normal rats (second Baseline line of Table 24), equal to 20 mg/kg of NSAIAs
# Description: as §1, with “25). […]” for “25).”
# normal rats [10] = assay: Blood glucose in normal rats, oral with food; format: in vivo, rat; conditions: for Blood glucose, Normal rats, Average: average second to fifth week, equal to 20 mg/kg of NSAIAs every day; for Blood glucose, Normal rats, Baseline: equal to 20 mg/kg of NSAIAs
# 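For LD50 of HPP in this document: acute toxicity in rats expressed as LD50, determined for both prodrugs and their parent compounds.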
SMILES,Peak plasma concentration of parent compound after prodrug compound [1],"t, time to peak plasma level of parent compound after prodrug compound [1]","analgesic activity, prolongation time of pain threshold of mice tails (mice [2])",% (rate of writhing inhibition) (mice [3]; 50 mg/kg transdermally),No. of Writhing (mice [3]; 50 mg/kg transdermally),% (rate of writhing inhibition) (mice [3]; 100 mg/kg transdermally),No. of Writhing (mice [3]; 100 mg/kg transdermally),"body temperature, t = 0 min (rats; 100 mg/kg transdermally)","body temperature, t = 90 min (rats; 100 mg/kg transdermally)","body temperature, t = 180 min (rats; 100 mg/kg transdermally)","body temperature, t = 270 min (rats; 100 mg/kg transdermally)","body temperature, t = 0 min (rats; 150 mg/kg transdermally)","body temperature, t = 90 min (rats; 150 mg/kg transdermally)","body temperature, t = 180 min (rats; 150 mg/kg transdermally)","body temperature, t = 270 min (rats; 150 mg/kg transdermally)","In vitro penetration rate (apparent flux), prodrug compounds (human skin tissue)",LD50 of HPP (rat),"Blood glucose, Average [4]","Blood glucose, Baseline [4]","Cholesterol (HDL), Baseline [5]",further results
"CC(C)NCC(O)COc1ccc(CC(N)=O)cc1 (stereo not drawn) [atenolol HCl salt, reference compound]",,,,,,,,,,,,,,,,,,,,,blood pressure of hypertension patients (Hypertension patients): controlled
"CC(=O)O.CCN(CC)CCOC(=O)c1cc(-c2ccc(F)cc2F)ccc1O [diethylaminoethyl 5-(2,4-difluorophenyl) salicylate.AcOH]",50 mg/L,30 min,stronger analgesic activity,62%,13.2,71%,10.2,37.22 ± 0.07,36.42 ± 0.06,36.40 ± 0.05,36.47 ± 0.08,37.26 ± 0.08,36.20 ± 0.05,36.30 ± 0.07,36.31 ± 0.08,100 μg/cm^2/h,1000 mg/kg,,,,
CC(=O)O.CCN(CC)CCOC(=O)c1ccccc1O [diethylaminoethyl salicylate.AcOH],40 mg/L,30 min,stronger analgesic activity,60%,14.0,66%,11.9,37.28 ± 0.06,36.85 ± 0.06,36.88 ± 0.08,36.86 ± 0.07,37.26 ± 0.05,36.55 ± 0.05,36.60 ± 0.07,36.65 ± 0.05,60 μg/cm^2/h,1600 mg/kg,8.2 ± 1 mmol/L,15.8 ± 3 mmol/L,1.6 ± 0.2 mmol/L,"Cholesterol (total), Baseline [5]: 7.1 ± 0.5 mmol/L; Triglycerides, Baseline [5]: 5.6 ± 0.6 mmol/L; Cholesterol (HDL), Average [5]: 1.5 ± 0.1 mmol/L; Cholesterol (total), Average [5]: 4.9 ± 0.4 mmol/L; Triglycerides, Average [5]: 2.5 ± 0.2 mmol/L; Blood glucose, Diabetic rats, Average [6]: 7.8 ± 1 mmol/L; Blood glucose, Diabetic rats, Baseline [6]: 15.6 ± 3 mmol/L; Cholesterol (HDL), Baseline [7]: 1.6 ± 0.2 mmol/L; Cholesterol (total), Baseline [7]: 7.6 ± 0.5 mmol/L; Triglycerides, Baseline [7]: 5.7 ± 0.6 mmol/L; Cholesterol (HDL), Average [7]: 1.7 ± 0.1 mmol/L; Cholesterol (total), Average [7]: 5.2 ± 0.5 mmol/L; Triglycerides, Average [7]: 2.6 ± 0.2 mmol/L; Blood glucose, Average [8]: 8.2 ± 1 mmol/L; Blood glucose, Baseline [8]: 25.8 ± 3 mmol/L; Blood glucose, Average (normal rats [9]): 6.9 ± 1 mmol/L; Blood glucose, Baseline (normal rats [9]): 6.8 ± 1 mmol/L; Blood glucose, Normal rats, Average (normal rats [10]): 6.9 ± 1 mmol/L; Blood glucose, Normal rats, Baseline (normal rats [10]): 6.7 ± 1 mmol/L"
CC(=O)O.CCN(CC)CCOC(=O)c1ccccc1OC(=O)c1ccccc1O [diethylaminoethyl salicylsalicylate.AcOH],40 mg/L,30 min,stronger analgesic activity,59%,14.2,65%,12.0,37.28 ± 0.06,36.75 ± 0.06,36.78 ± 0.08,36.80 ± 0.07,37.26 ± 0.05,36.45 ± 0.05,36.40 ± 0.07,36.50 ± 0.05,80 μg/cm^2/h,2000 mg/kg,8.4 ± 1 mmol/L,16.5 ± 4 mmol/L,1.3 ± 0.1 mmol/L,"Cholesterol (total), Baseline [5]: 7.7 ± 0.5 mmol/L; Triglycerides, Baseline [5]: 5.3 ± 0.5 mmol/L; Cholesterol (HDL), Average [5]: 1.4 ± 0.2 mmol/L; Cholesterol (total), Average [5]: 4.8 ± 0.4 mmol/L; Triglycerides, Average [5]: 2.4 ± 0.2 mmol/L; Blood glucose, Diabetic rats, Average [6]: 7.6 ± 1 mmol/L; Blood glucose, Diabetic rats, Baseline [6]: 16.5 ± 4 mmol/L; Cholesterol (HDL), Baseline [7]: 1.5 ± 0.1 mmol/L; Cholesterol (total), Baseline [7]: 7.9 ± 0.5 mmol/L; Triglycerides, Baseline [7]: 5.8 ± 0.6 mmol/L; Cholesterol (HDL), Average [7]: 1.4 ± 0.2 mmol/L; Cholesterol (total), Average [7]: 5.6 ± 0.4 mmol/L; Triglycerides, Average [7]: 2.7 ± 0.2 mmol/L; Blood glucose, Average [8]: 9.4 ± 1 mmol/L; Blood glucose, Baseline [8]: 26.5 ± 4 mmol/L; Blood glucose, Average (normal rats [9]): 6.7 ± 1 mmol/L; Blood glucose, Baseline (normal rats [9]): 6.5 ± 1 mmol/L; Blood glucose, Normal rats, Average (normal rats [10]): 6.6 ± 1 mmol/L; Blood glucose, Normal rats, Baseline (normal rats [10]): 6.3 ± 1 mmol/L"
